The target in experiment [1] is Stromal cell-derived factor 1 (Homo sapiens, UniProt P48061). Put plainly: Inhibition of SDF-1 alpha induced cell migration in human SUP-T1 cells pre-incubated for 30 mins followed by SDF-1 alpha addition measured after 3 hrs by cell Titer-96 reagent based analysis.
Experiment [2] has as its target C-X-C chemokine receptor type 4 (Homo sapiens, UniProt P61073). Put plainly: Binding affinity to CXCR4 (unknown origin) expressed in CHO cells incubated for 40 mins by competitive binding assay method.

Chain of C-X-C chemokine receptor type 4 (P61073 whole entry): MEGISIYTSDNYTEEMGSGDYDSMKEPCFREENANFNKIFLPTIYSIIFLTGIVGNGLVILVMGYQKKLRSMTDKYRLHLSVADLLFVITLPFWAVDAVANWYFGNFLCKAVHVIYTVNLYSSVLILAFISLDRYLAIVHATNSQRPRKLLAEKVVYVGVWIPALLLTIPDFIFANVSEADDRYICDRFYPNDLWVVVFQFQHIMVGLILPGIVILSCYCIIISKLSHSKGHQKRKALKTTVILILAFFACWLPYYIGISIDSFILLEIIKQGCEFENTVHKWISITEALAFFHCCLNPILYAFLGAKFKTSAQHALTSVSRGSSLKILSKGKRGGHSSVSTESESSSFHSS
Chain of Stromal cell-derived factor 1 (P48061 whole entry): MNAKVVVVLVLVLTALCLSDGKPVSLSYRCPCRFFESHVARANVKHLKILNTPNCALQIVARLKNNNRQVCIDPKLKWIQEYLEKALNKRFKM

The IC50 is the concentration at which inhibition is half-maximal. In experiment [1], `CCOC(=O)C1CNc2c(OC)cc(Cc3cnc(N)nc3N)c(OC)c2C1` (stereo not given) displayed an IC50 of 621 nM.

`Cc1ccnc2c(N)cc(Cc3cnc(N)nc3N)cc12`: in experiment [2], the IC50 was 68 nM.

Take `COc1cc(Cc2cnc(N)nc2N)cc2c1N(CCOC(C)=O)CCC2C` (stereo not given): in experiment [2], the concentration for half-maximal inhibition (IC50) amounted to 68 nM.

Consider `Nc1ncc(Cc2ccc3ncccc3c2)c(N)n1`, for which the IC50 in experiment [2] came to 119 nM.

In experiment [2], `COc1cc(Cc2cnc(N)nc2N)cc2c(C)cc(C)nc12` showed an IC50 of 122 nM.

(Values after BindingDB's records for PubMed 32492596 (Tsinghua University, 2020).)
